Measured values taken from ChEMBL document CHEMBL4483862, “Open-source discovery of chemical leads for next-generation chemoprotective antimalarials” (2018).

System: Plasmodium berghei
Test: Luciferase/luciferin-expressing antifolate-resistant parasites were used to infect a culture of HepG2 cells that were pre-incubated with compounds. Infected hepatocytes emit light due to the luciferase reaction. Assay results are presented as the percent inhibition of light emission compared to control. […]
Type: functional
Settings: sporozoite; for IC90: read-out: LUCIFERASE INFECTION ASSAY - IC90

## CCCc1nc2oc3cc(OC)ccc3c(=O)c2c(=O)n1Cc1ccco1
PBLUC_HILL_SLOPE 1.9, PBLUC_R_SQUARED 0.121, read-out: LUCIFERASE INFECTION ASSAY - IC50
  IC50: 5.6 µM
  IC90: > 9.01 µM

## CC1=CC(C)(C)N(C(=O)c2ccc(F)cc2)c2cc3c(cc21)OCO3
PBLUC_HILL_SLOPE 1.83, PBLUC_R_SQUARED 0.549, read-out: LUCIFERASE INFECTION ASSAY - IC50
  IC50: 6.14 µM
  IC90: > 9.72 µM

## Cc1ccc(Oc2c(C)nc(-c3ccccc3)nc2O)cc1
PBLUC_HILL_SLOPE 1.81, PBLUC_R_SQUARED 0.898, read-out: LUCIFERASE INFECTION ASSAY - IC50
  IC50: 0.524 µM
  IC90: 1.76 µM

## c1cc(-c2cn3c(-c4ccc5c(c4)OCO5)cnc3cn2)cs1
PBLUC_HILL_SLOPE 1.82, PBLUC_R_SQUARED 0.105, read-out: LUCIFERASE INFECTION ASSAY - IC50
  IC50: > 10.3 µM
  IC90: > 10.3 µM

## COc1ccc(-c2cnc3cnc(-c4ccc(N)nc4)cn23)cc1
PBLUC_HILL_SLOPE 1.84, PBLUC_R_SQUARED 0.648, read-out: LUCIFERASE INFECTION ASSAY - IC50
  IC50: 2.43 µM
  IC90: 8 µM

## Cc1ccc(-c2cnc3ccc(NCc4cccs4)nn23)cc1
PBLUC_HILL_SLOPE 1.88, PBLUC_R_SQUARED 0.642, read-out: LUCIFERASE INFECTION ASSAY - IC50
  IC50: 4.8 µM
  IC90: > 10.3 µM

## CC(=O)c1ccc(-c2cnc3sc(NCCN4CCOCC4)nn23)s1
PBLUC_HILL_SLOPE 1.89, PBLUC_R_SQUARED 0.43, read-out: LUCIFERASE INFECTION ASSAY - IC50
  IC50: 5.97 µM
  IC90: > 8.74 µM

## Cn1c(Nc2cccc(C(F)(F)F)c2)nc2cnc(-c3ccc(N)nc3)cc21
PBLUC_HILL_SLOPE 1.84, PBLUC_R_SQUARED 0.0919, read-out: LUCIFERASE INFECTION ASSAY - IC50
  IC50: > 10 µM
  IC90: > 10 µM

## COc1ccc(NC(=O)CN(C)c2nc(-c3cccnc3)nc3sc(C)c(C)c23)cc1
PBLUC_HILL_SLOPE 1.86E+03, PBLUC_R_SQUARED 0.436, read-out: LUCIFERASE INFECTION ASSAY - IC50
  IC50: 3.92 µM
  IC90: 3.92 µM

## COc1cc(-c2nc3ccc(NC(=O)COc4ccccc4)cn3n2)cc(OC)c1OC
PBLUC_HILL_SLOPE 1.9, PBLUC_R_SQUARED 0.239, read-out: LUCIFERASE INFECTION ASSAY - IC50
  IC50: 5.59 µM
  IC90: > 10 µM

## Cc1ccc(S(=O)(=O)Nc2ccc(Nc3nccn4c(-c5ccc(F)cc5)cnc34)cc2)cc1
PBLUC_HILL_SLOPE 1.86, PBLUC_R_SQUARED 0.706, read-out: LUCIFERASE INFECTION ASSAY - IC50
  IC50: 1.37 µM
  IC90: 4.49 µM

## CCN(CC)c1ccc(NC(=O)c2c(F)cccc2F)c(N(CC)CC)n1
PBLUC_HILL_SLOPE 1.91, PBLUC_R_SQUARED 0.469, read-out: LUCIFERASE INFECTION ASSAY - IC50
  IC50: 5.46 µM
  IC90: > 8.77 µM

## Cc1ccc(C)c(-n2nnnc2SCC(=O)Nc2nc(-c3ccccn3)cs2)c1
PBLUC_HILL_SLOPE 1.88, PBLUC_R_SQUARED 0.631, read-out: LUCIFERASE INFECTION ASSAY - IC50
  IC50: 5.63 µM
  IC90: > 10 µM

## FC(F)(F)c1c(-c2ccccc2)c2cc(Cl)ccc2n1Cc1ccccc1
PBLUC_HILL_SLOPE 1.92, PBLUC_R_SQUARED 0.0693, read-out: LUCIFERASE INFECTION ASSAY - IC50
  IC50: 7.21 µM
  IC90: > 8.55 µM

## CC(C)(C)NC(=S)N/N=C/c1ccnc(SCc2ccc(Cl)cc2)n1
PBLUC_HILL_SLOPE 1.91, PBLUC_R_SQUARED 0.389, read-out: LUCIFERASE INFECTION ASSAY - IC50
  IC50: 5.71 µM
  IC90: > 8.38 µM

## COc1ccc2c(c1)c(-c1csc(NC(=O)c3ccccn3)n1)c(C)n2C
PBLUC_HILL_SLOPE 1.89, PBLUC_R_SQUARED 0.766, read-out: LUCIFERASE INFECTION ASSAY - IC50
  IC50: > 8.72 µM
  IC90: > 8.72 µM

## CC(C)n1ncc2cc(C(=O)Nc3nnc(-c4ccccn4)[nH]3)cnc21
PBLUC_HILL_SLOPE 1.86, PBLUC_R_SQUARED 0.0303, read-out: LUCIFERASE INFECTION ASSAY - IC50
  IC50: 6.07 µM
  IC90: > 10 µM

## N#Cc1ccc(Sc2c(Cl)cccc2Cl)c(NC(=O)c2cccc(Cl)c2)c1
PBLUC_HILL_SLOPE 1.82, PBLUC_R_SQUARED 0.326, read-out: LUCIFERASE INFECTION ASSAY - IC50
  IC50: 6.05 µM
  IC90: > 7.61 µM

## O=C1Nc2ccc([N+](=O)[O-])cc2/C1=N\NC(=O)c1cc2ccccc2cc1O
PBLUC_HILL_SLOPE 1.88, PBLUC_R_SQUARED 0.548, read-out: LUCIFERASE INFECTION ASSAY - IC50
  IC50: 4.86 µM
  IC90: > 10 µM

## COc1cc(/C=C/c2ccc3ccccc3n2)ccc1OCC(=O)Nc1cccc(C(F)(F)F)c1
PBLUC_HILL_SLOPE 1.81, PBLUC_R_SQUARED 0.402, read-out: LUCIFERASE INFECTION ASSAY - IC50
  IC50: 8.14 µM
  IC90: > 10 µM

## CC(C)(C)c1cc(C(=O)OCC(=O)N2CCCCC2)cc(C(C)(C)C)c1
PBLUC_HILL_SLOPE 1.88, PBLUC_R_SQUARED 0.16, read-out: LUCIFERASE INFECTION ASSAY - IC50
  IC50: 8.44 µM
  IC90: > 10 µM

## CC(=O)c1ccc(-c2ccc(C(=O)N3CCc4sccc4C3)o2)cc1
PBLUC_HILL_SLOPE 1.84, PBLUC_R_SQUARED 0.357, read-out: LUCIFERASE INFECTION ASSAY - IC50
  IC50: 4.1 µM
  IC90: > 10 µM

## Cc1cc(C(=O)N/N=C2\C(=O)Nc3ccccc32)c(C)n1-c1ccc(F)cc1
PBLUC_HILL_SLOPE 1.9, PBLUC_R_SQUARED 0.511, read-out: LUCIFERASE INFECTION ASSAY - IC50
  IC50: 3.94 µM
  IC90: > 10 µM

## Cc1ccc(C(=O)C(C)Oc2ccc(NC(=O)c3cccs3)cc2)cc1 (configuration not stated)
PBLUC_HILL_SLOPE 1.89, PBLUC_R_SQUARED 0.795, read-out: LUCIFERASE INFECTION ASSAY - IC50
  IC50: 0.461 µM
  IC90: 1.47 µM

## CNC(=O)c1nn(CC2CCCCC2)c2c1CC(NC1CCN(Cc3ccccc3)CC1)CC2 (configuration not stated)
PBLUC_HILL_SLOPE 1.91, PBLUC_R_SQUARED 0.276, read-out: LUCIFERASE INFECTION ASSAY - IC50
  IC50: 6.52 µM
  IC90: > 7.12 µM

## O=C(Nc1ccc(Cl)cc1)N1CCCN(Cc2ccc(Br)cc2F)CC1
PBLUC_HILL_SLOPE 1.86, PBLUC_R_SQUARED 0.575, read-out: LUCIFERASE INFECTION ASSAY - IC50
  IC50: 2.95 µM
  IC90: > 7.49 µM

## Fc1ccc(-c2cnn3c(NCCCN4CCOCC4)ccnc23)cc1Cl
PBLUC_HILL_SLOPE 1.9, PBLUC_R_SQUARED 0.489, read-out: LUCIFERASE INFECTION ASSAY - IC50
  IC50: 4.05 µM
  IC90: > 8.46 µM

## COc1ccc2nc(C)cc(NC(C)CCc3ccccc3)c2c1 (configuration not stated)
PBLUC_HILL_SLOPE 1.9, PBLUC_R_SQUARED 0.397, read-out: LUCIFERASE INFECTION ASSAY - IC50
  IC50: 6.04 µM
  IC90: > 10 µM

## CC(C)c1cccc(Nc2cc3c(cn2)nc(Nc2ccccc2)n3C)c1
PBLUC_HILL_SLOPE 1.87, PBLUC_R_SQUARED 0.0991, read-out: LUCIFERASE INFECTION ASSAY - IC50
  IC50: > 10 µM
  IC90: > 10 µM

## O=C(Oc1ccc(/C=N/n2cnnc2)cc1)c1ccco1
PBLUC_HILL_SLOPE 1.92, PBLUC_R_SQUARED 0.124, read-out: LUCIFERASE INFECTION ASSAY - IC50
  IC50: > 10 µM
  IC90: > 10 µM

## Cc1nc2nc(C(F)(F)F)nn2c(C)c1CCC(=O)NCC(c1cccs1)N1CCC(C)CC1 (configuration not stated)
PBLUC_HILL_SLOPE 1.88, PBLUC_R_SQUARED 0.575, read-out: LUCIFERASE INFECTION ASSAY - IC50
  IC50: 6.51 µM
  IC90: > 10 µM

## CCCCNc1nc2ccccc2n1CC(=O)Nc1ccc(S(=O)(=O)N2CCCC2)cc1
PBLUC_HILL_SLOPE 1.82, PBLUC_R_SQUARED 0.488, read-out: LUCIFERASE INFECTION ASSAY - IC50
  IC50: 3.67 µM
  IC90: > 10 µM

## CS(=O)(=O)c1ccc2c(c1)sc1nc(-c3ccccc3Cl)cn12
PBLUC_HILL_SLOPE 1.82, PBLUC_R_SQUARED 0.22, read-out: LUCIFERASE INFECTION ASSAY - IC50
  IC50: 4.47 µM
  IC90: > 10 µM

## O=C1C(=O)N(CCN2CCOCC2)c2ccc(Cl)cc21
PBLUC_HILL_SLOPE 1.82, PBLUC_R_SQUARED 0.307, read-out: LUCIFERASE INFECTION ASSAY - IC50
  IC50: 2.83 µM
  IC90: 9.44 µM

## Cc1cccc(N2CCN(C(=O)c3cc4ccccc4o3)CC2C)c1 (configuration not stated)
PBLUC_HILL_SLOPE 1.92, PBLUC_R_SQUARED 0.443, read-out: LUCIFERASE INFECTION ASSAY - IC50
  IC50: 4.83 µM
  IC90: > 10 µM

## c1ccc(-c2cc3c(Oc4ccc(-n5ccnc5)cc4)ncnc3s2)cc1
PBLUC_HILL_SLOPE 1.81, PBLUC_R_SQUARED 0.315, read-out: LUCIFERASE INFECTION ASSAY - IC50
  IC50: 6.93 µM
  IC90: > 10 µM

## CC(C)(C)c1ccc(-n2nnnc2-c2ccccc2)cc1
PBLUC_HILL_SLOPE 1.83, PBLUC_R_SQUARED 0.134, read-out: LUCIFERASE INFECTION ASSAY - IC50
  IC50: 6.62 µM
  IC90: > 11.9 µM

## c1ccc(Oc2cccc(-c3ccc4nnc(-c5ccc6c(c5)OCO6)n4c3)c2)cc1
PBLUC_HILL_SLOPE 1.92, PBLUC_R_SQUARED 0.18, read-out: LUCIFERASE INFECTION ASSAY - IC50
  IC50: 8.29 µM
  IC90: > 10 µM

## O=C(NCCCNc1ccnc2cc(Cl)ccc12)c1ccccc1F
PBLUC_HILL_SLOPE 1.88, PBLUC_R_SQUARED 0.797, read-out: LUCIFERASE INFECTION ASSAY - IC50
  IC50: 1.93 µM
  IC90: 6.19 µM

## O=C(NNC(=O)c1csnn1)c1ccc(Cl)cc1
PBLUC_HILL_SLOPE 1.87, PBLUC_R_SQUARED 0.856, read-out: LUCIFERASE INFECTION ASSAY - IC50
  IC50: 0.277 µM
  IC90: 0.897 µM

## O=C(Nc1ccc(-n2ccc(C(F)(F)F)n2)cc1)c1cccs1
PBLUC_HILL_SLOPE 1.9, PBLUC_R_SQUARED 0.777, read-out: LUCIFERASE INFECTION ASSAY - IC50
  IC50: 1.14 µM
  IC90: 3.61 µM
